# Source: patent US4286089A, “7-Acyl-3-(substituted tetrazolyl thiomethyl)cephalosporins” (SmithKline Corporation, priority 1974, dated 1981)
# Test system: E. coli 12140
# Assay: In vivo mouse protection, E. coli 12140
# Details: Escherichia coli, po, E. coli 12140, p.o.
# Description: Compound names corresponding to numbers are given in the experimental section. For comparative purposes, data for cephamandole, which is 7-mandelamido-3-(1-methyltetrazol-5-ylthiomethyl)-3-cephem-4-carboxylic acid, is also given in Tables 1 and 2.
structure (smiles),measurement,value
"N[C@@H](C(=O)NC1C(=O)N2C(C(=O)O)=C(CSc3nnnn3CC(=O)O)CS[C@H]12)c1ccc(O)cc1 (stereo partly drawn) [II, 7-(D-α-Amino-4-hydroxyphenylacetamido)-3-(1-carboxymethyl-tetrazol-5-ylthiomethyl)-3-cephem-4-carboxylic acid]",ED50,200 mg/kg
